Tested on: Influenza A/WSN/33-Luciferase virus
Assay: microbe, parasite or virus in culture
Assay type: cell-based
Details: A549, 72 h, luciferase signal three days later, read-out: IC50 antiviral activity (Luciferase reporter assay)

Row | Structure (SMILES) | IC50
1 | C=Cc1ccc2c(Nc3cccn(C)c3=O)nn(-c3ccc(OC(F)(F)F)cc3)c(=O)c2c1 [Example 84, 4-[(1-methyl-2-oxo-3-pyridyl)amino]-2-[4-(trifluoromethoxy)phenyl]-7-vinyl-phthalazin-1-one] | 176 nM
2 | CCn1cncc(Nc2nn(-c3ccc(OC(F)(F)F)cc3)c(=O)c3c2CCN(C(C)=O)C3)c1=O [Example 85, 6-acetyl-1-[(1-ethyl-6-oxo-pyrimidin-5-yl)amino]-3-[4-(trifluoromethoxy)phenyl]-7,8-dihydro-5H-pyrido[3,4-d]pyridazin-4-one] | 56 nM
3 | CCCn1cncc(Nc2nn(-c3ccc(OC(F)(F)F)cc3)c(=O)c3c2CCN(C(C)=O)C3)c1=O [Example 86, 6-acetyl-1-[(6-oxo-1-propyl-pyrimidin-5-yl)amino]-3-[4-(trifluoromethoxy)phenyl]-7,8-dihydro-5H-pyrido[3,4-d]pyridazin-4-one] | 34 nM
4 | CC(=O)N1CCc2c(Nc3cc(F)cn(C)c3=O)nn(-c3ccc(OC(F)(F)F)cc3)c(=O)c2C1 [Example 87, 6-acetyl-1-[(5-fluoro-1-methyl-2-oxo-3-pyridyl)amino]-3-[4-(trifluoromethoxy)phenyl]-7,8-dihydro-5H-pyrido[3,4-d]pyridazin-4-one] | 17 nM
5 | O=C(Cn1cccc(Nc2nn(-c3ccc(OC(F)(F)F)cc3)c(=O)c3ccccc23)c1=O)N1CCOCC1 [Example 88, 4-[[1-(2-Morpholino-2-oxo-ethyl)-2-oxo-3-pyridyl]amino]-2-[4-(trifluoromethoxy)phenyl]phthalazin-1-one] | 23 nM
6 | CN(C)C(=O)Cn1cccc(Nc2nn(-c3ccc(OC(F)(F)F)cc3)c(=O)c3ccccc23)c1=O [Example 89, N,N-dimethyl-2-[2-oxo-3-[[4-oxo-3-[4-(trifluoromethoxy)phenyl]phthalazin-1-yl]amino]-1-pyridyl]acetamide] | 38 nM
7 | CC(C)NC(=O)Cn1cccc(Nc2nn(-c3ccc(OC(F)(F)F)cc3)c(=O)c3ccccc23)c1=O [Example 90, N-isopropyl-2-[2-oxo-3-[[4-oxo-3-[4-(trifluoromethoxy)phenyl]phthalazin-1-yl]amino]-1-pyridyl]acetamide] | 162 nM
8 | CNC(=O)Cn1cccc(Nc2nn(-c3ccc(OC(F)(F)F)cc3)c(=O)c3ccccc23)c1=O [Example 91, N-methyl-2-[2-oxo-3-[[4-oxo-3-[4-(trifluoromethoxy)phenyl]phthalazin-1-yl]amino]-1-pyridyl]acetamide] | 41 nM
9 | O=C(Cn1cccc(Nc2nn(-c3ccc(OC(F)(F)F)cc3)c(=O)c3ccccc23)c1=O)NCCO [Example 92, N-(2-hydroxyethyl)-2-[2-oxo-3-[[4-oxo-3-[4-(trifluoromethoxy)phenyl]phthalazin-1-yl]amino]-1-pyridyl]acetamide] | 178 nM
10 | CN(C)CCNC(=O)Cn1cccc(Nc2nn(-c3ccc(OC(F)(F)F)cc3)c(=O)c3ccccc23)c1=O [Example 93, N-[2-(dimethylamino)ethyl]-2-[2-oxo-3-[[4-oxo-3-[4-(trifluoromethoxy)phenyl]phthalazin-1-yl]amino]-1-pyridyl]acetamide] | 166 nM
11 | COCCCNC(=O)Cn1cccc(Nc2nn(-c3ccc(OC(F)(F)F)cc3)c(=O)c3ccccc23)c1=O [Example 94, N-(3-methoxypropyl)-2-[2-oxo-3-[[4-oxo-3-[4-(trifluoromethoxy)phenyl]phthalazin-1-yl]amino]-1-pyridyl]acetamide] | 45 nM
12 | CNC(=O)CCn1cccc(Nc2nn(-c3ccc(OC(F)(F)F)cc3)c(=O)c3ccccc23)c1=O [Example 95, N-methyl-3-[2-oxo-3-[[4-oxo-3-[4-(trifluoromethoxy)phenyl]phthalazin-1-yl]amino]-1-pyridyl]propanamide] | 102 nM
13 | CN(C)C(=O)CCn1cccc(Nc2nn(-c3ccc(OC(F)(F)F)cc3)c(=O)c3ccccc23)c1=O [Example 96, N,N-dimethyl-3-[2-oxo-3-[[4-oxo-3-[4-(trifluoromethoxy)phenyl]phthalazin-1-yl]amino]-1-pyridyl]propanamide] | 42 nM
14 | CNC(=O)CCCn1cccc(Nc2nn(-c3ccc(OC(F)(F)F)cc3)c(=O)c3ccccc23)c1=O [Example 97, N-methyl-4-[2-oxo-3-[[4-oxo-3-[4-(trifluoromethoxy)phenyl]phthalazin-1-yl]amino]-1-pyridyl]butanamide] | 9 nM
15 | CN(C)C(=O)CCCn1cccc(Nc2nn(-c3ccc(OC(F)(F)F)cc3)c(=O)c3ccccc23)c1=O [Example 98, N,N-dimethyl-4-[2-oxo-3-[[4-oxo-3-[4-(trifluoromethoxy)phenyl]phthalazin-1-yl]amino]-1-pyridyl]butanamide] | 10 nM
16 | CNC(=O)C(C)(C)Cn1cccc(Nc2nn(-c3ccc(OC(F)(F)F)cc3)c(=O)c3ccccc23)c1=O [Example 99, N,2,2-trimethyl-3-[2-oxo-3-[[4-oxo-3-[4-(trifluoromethoxy)phenyl]phthalazin-1-yl]amino]-1-pyridyl]propanamide] | 291 nM

Row | Structure (SMILES) | IC50
17 | CN(C)C(=O)C(C)(C)Cn1cccc(Nc2nn(-c3ccc(OC(F)(F)F)cc3)c(=O)c3ccccc23)c1=O [Example 100, N,N,2,2-tetramethyl-3-[2-oxo-3-[[4-oxo-3-[4-(trifluoromethoxy)phenyl]phthalazin-1-yl]amino]-1-pyridyl]propanamide] | 36 nM
18 | CC(C)(Cn1cccc(Nc2nn(-c3ccc(OC(F)(F)F)cc3)c(=O)c3ccccc23)c1=O)C(N)=O [Example 101, 2,2-dimethyl-3-[2-oxo-3-[[4-oxo-3-[4-(trifluoromethoxy)phenyl]phthalazin-1-yl]amino]-1-pyridyl]propanamide] | 109 nM
19 | CNC(=O)COCCn1cccc(Nc2nn(-c3ccc(OC(F)(F)F)cc3)c(=O)c3ccccc23)c1=O [Example 102, N-methyl-2-[2-[2-oxo-3-[[4-oxo-3-[4-(trifluoromethoxy)phenyl]phthalazin-1-yl]amino]-1-pyridyl]ethoxy]acetamide] | 37 nM
20 | CN(C)C(=O)COCCn1cccc(Nc2nn(-c3ccc(OC(F)(F)F)cc3)c(=O)c3ccccc23)c1=O [Example 103, N,N-dimethyl-2-[2-[2-oxo-3-[[4-oxo-3-[4-(trifluoromethoxy)phenyl]phthalazin-1-yl]amino]-1-pyridyl]ethoxy]acetamide] | 38 nM
21 | CNC(=O)Cn1cccc(Nc2nn(-c3ccc(OC(F)(F)F)cc3)c(=O)c3c2CCCC3)c1=O [Example 104, N-methyl-2-[2-oxo-3-[[4-oxo-3-[4-(trifluoromethoxy)phenyl]-5,6,7,8-tetrahydrophthalazin-1-yl]amino]-1-pyridyl]acetamide] | 39 nM
22 | CNC(=O)CCCn1cccc(Nc2nn(-c3ccc(OC(F)(F)F)cc3)c(=O)c3c2CCC3)c1=O [Example 105, N-methyl-4-[2-oxo-3-[[4-oxo-3-[4-(trifluoromethoxy)phenyl]-6,7-dihydro-5H-cyclopenta[d]pyridazin-1-yl]amino]-1-pyridyl]butanamide] | 15 nM
23 | CN(C)C(=O)CCCn1cccc(Nc2nn(-c3ccc(OC(F)(F)F)cc3)c(=O)c3c2CCC3)c1=O [Example 106, N,N-dimethyl-4-[2-oxo-3-[[4-oxo-3-[4-(trifluoromethoxy)phenyl]-6,7-dihydro-5H-cyclopenta[d]pyridazin-1-yl]amino]-1-pyridyl]butanamide] | 14 nM
24 | CNC(=O)COCCn1cccc(Nc2nn(-c3ccc(OC(F)(F)F)cc3)c(=O)c3c2CCC3)c1=O [Example 107, N-methyl-2-[2-[2-oxo-3-[[4-oxo-3-[4-(trifluoromethoxy)phenyl]-6,7-dihydro-5H-cyclopenta[d]pyridazin-1-yl]amino]-1-pyridyl]ethoxy]acetamide] | 49 nM
25 | CN(C)C(=O)COCCn1cccc(Nc2nn(-c3ccc(OC(F)(F)F)cc3)c(=O)c3c2CCC3)c1=O [Example 108, N,N-dimethyl-2-[2-[2-oxo-3-[[4-oxo-3-[4-(trifluoromethoxy)phenyl]-6,7-dihydro-5H-cyclopenta[d]pyridazin-1-yl]amino]-1-pyridyl]ethoxy]acetamide] | 29 nM
26 | O=C(O)CCn1cccc(Nc2nn(-c3ccc(OC(F)(F)F)cc3)c(=O)c3ccccc23)c1=O [Example 109, 3-[2-Oxo-3-[[4-oxo-3-[4-(trifluoromethoxy)phenyl]phthalazin-1-yl]amino]-1-pyridyl]propanoic acid] | 842 nM
27 | O=C(O)CCCn1cccc(Nc2nn(-c3ccc(OC(F)(F)F)cc3)c(=O)c3ccccc23)c1=O [Example 110, 4-[2-oxo-3-[[4-oxo-3-[4-(trifluoromethoxy)phenyl]phthalazin-1-yl]amino]-1-pyridyl]butanoic acid] | 482 nM
28 | CC(C)(Cn1cccc(Nc2nn(-c3ccc(OC(F)(F)F)cc3)c(=O)c3ccccc23)c1=O)C(=O)O [Example 111, 2,2-dimethyl-3-[2-oxo-3-[[4-oxo-3-[4-(trifluoromethoxy)phenyl]phthalazin-1-yl]amino]-1-pyridyl]propanoic acid] | 1510 nM
29 | O=C(O)COCCn1cccc(Nc2nn(-c3ccc(OC(F)(F)F)cc3)c(=O)c3ccccc23)c1=O [Example 112, 2-[2-[2-oxo-3-[[4-oxo-3-[4-(trifluoromethoxy)phenyl]phthalazin-1-yl]amino]-1-pyridyl]ethoxy]acetic acid] | 2990 nM
30 | CN(CCn1cccc(Nc2nn(-c3ccc(OC(F)(F)F)cc3)c(=O)c3ccccc23)c1=O)CC(=O)O [Example 113, 2-[methyl-[2-[2-oxo-3-[[4-oxo-3-[4-(trifluoromethoxy)phenyl]phthalazin-1-yl]amino]-1-pyridyl]ethyl]amino]acetic acid] | 161 nM
31 | O=C(O)C1CCCN1CCn1cccc(Nc2nn(-c3ccc(OC(F)(F)F)cc3)c(=O)c3ccccc23)c1=O (centres unmarked) [Example 114, 1-[2-[2-oxo-3-[[4-oxo-3-[4-(trifluoromethoxy)phenyl]phthalazin-1-yl]amino]-1-pyridyl]ethyl]pyrrolidine-2-carboxylic acid] | 110 nM
32 | O=C(O)[C@@H]1CCCN1CCn1cccc(Nc2nn(-c3ccc(OC(F)(F)F)cc3)c(=O)c3ccccc23)c1=O [Example 115, (2S)-1-[2-[2-oxo-3-[[4-oxo-3-[4-(trifluoromethoxy)phenyl]phthalazin-1-yl]amino]-1-pyridyl]ethyl]pyrrolidine-2-carboxylic acid] | 180 nM
